Experimental data reported in patent publication US11224609B2, “Mithramycin derivatives having increased selectivity and anti-cancer activity” (University of Kentucky Research Foundation, priority 2017, dated 2022).

Key:
[1] = test system: PC-3 (prostate cancer, no ETS translocation) cell line; assay: 72 h growth inhibition (GI50) assay in PC-3; details: read-out: PC-3 Prostate cancer No ETS Translocation GI50; 72 h growth inhibition, PC-3 cells
[2] = test system: TC-32 (Ewing sarcoma, EWS-FLI1 Type 1) cell line; details: for TC-32 Ewing sarcoma EWS-FLI1 Type 1 GI50: 72 h growth inhibition, TC-32 cells; for GI50 ratio PC-3:TC-32: selectivity, GI50 in PC-3 over GI50 in TC-32

Q: Which results are given for COC(=O)C(Cc1cn(Cc2ccccc2)c2ccccc12)NC(=O)C(OC)C1Cc2cc3cc(OC4CC(OC5CC(O)C(O)C(C)O5)C(O)C(C)O4)c(C)c(O)c3c(O)c2C(=O)C1OC1CC(OC2CC(OC3CC(C)(O)C(O)C(C)O3)C(O)C(C)O2)C(O)C(C)O1 (stereo not shown) [Analogue 46]?
A: GI50 [1]: > 10000 nM; TC-32 Ewing sarcoma EWS-FLI1 Type 1 GI50 [2]: 2297 nM

Q: Which results are given for C=CCn1cc(CC(NC(=O)C(OC)C2Cc3cc4cc(OC5CC(OC6CC(O)C(O)C(C)O6)C(O)C(C)O5)c(C)c(O)c4c(O)c3C(=O)C2OC2CC(OC3CC(OC4CC(C)(O)C(O)C(C)O4)C(O)C(C)O3)C(O)C(C)O2)C(=O)OC)c2ccccc21 (stereo not shown) [Analogue 47]?
A: GI50 [1]: 3140 nM; TC-32 Ewing sarcoma EWS-FLI1 Type 1 GI50 [2]: 2715 nM; GI50 ratio PC-3:TC-32 [2]: 1.2

Q: What does the source list for COC(=O)C(Cc1c[nH]c2ccc(OC)cc12)NC(=O)C(OC)C1Cc2cc3cc(OC4CC(OC5CC(O)C(O)C(C)O5)C(O)C(C)O4)c(C)c(O)c3c(O)c2C(=O)C1OC1CC(OC2CC(OC3CC(C)(O)C(O)C(C)O3)C(O)C(C)O2)C(O)C(C)O1 (stereo not shown) [Analogue 49]?
A: GI50 [1]: 617 nM; TC-32 Ewing sarcoma EWS-FLI1 Type 1 GI50 [2]: 675 nM; GI50 ratio PC-3:TC-32 [2]: 0.9

Q: With COC(=O)C(Cc1c[nH]c2ccc([N+](=O)[O-])cc12)NC(=O)C(OC)C1Cc2cc3cc(OC4CC(OC5CC(O)C(O)C(C)O5)C(O)C(C)O4)c(C)c(O)c3c(O)c2C(=O)C1OC1CC(OC2CC(OC3CC(C)(O)C(O)C(C)O3)C(O)C(C)O2)C(O)C(C)O1 (stereo not shown) [Analogue 50] as the compound, how does the GI50 [1] read?
A: 646 nM

Q: And the “TC-32 Ewing sarcoma EWS-FLI1 Type 1 GI50” value [2]?
A: 353 nM

Q: And the “GI50 ratio PC-3:TC-32” value [2]?
A: 1.8

Q: With COC(=O)C(Cc1c[nH]c2c(-c3ccccc3)cccc12)NC(=O)C(OC)C1Cc2cc3cc(OC4CC(OC5CC(O)C(O)C(C)O5)C(O)C(C)O4)c(C)c(O)c3c(O)c2C(=O)C1OC1CC(OC2CC(OC3CC(C)(O)C(O)C(C)O3)C(O)C(C)O2)C(O)C(C)O1 (stereo not shown) [Analogue 52] as the compound, how does the GI50 [1] read?
A: > 10000 nM

Q: What about the “TC-32 Ewing sarcoma EWS-FLI1 Type 1 GI50” value [2] of the same compound?
A: 2402 nM

Q: Which results are given for C=CCc1cccc2c(CC(NC(=O)C(OC)C3Cc4cc5cc(OC6CC(OC7CC(O)C(O)C(C)O7)C(O)C(C)O6)c(C)c(O)c5c(O)c4C(=O)C3OC3CC(OC4CC(OC5CC(C)(O)C(O)C(C)O5)C(O)C(C)O4)C(O)C(C)O3)C(=O)OC)c[nH]c12 (stereo not shown) [Analogue 53]?
A: GI50 [1]: 2990 nM; TC-32 Ewing sarcoma EWS-FLI1 Type 1 GI50 [2]: 794 nM; GI50 ratio PC-3:TC-32 [2]: 3.8

Q: Which results are given for COC(=O)C(Cc1c[nH]c2cc(-n3cc(-c4ccccc4)nn3)ccc12)NC(=O)C(OC)C1Cc2cc3cc(OC4CC(OC5CC(O)C(O)C(C)O5)C(O)C(C)O4)c(C)c(O)c3c(O)c2C(=O)C1OC1CC(OC2CC(OC3CC(C)(O)C(O)C(C)O3)C(O)C(C)O2)C(O)C(C)O1 (stereo not shown) [Analogue 54]?
A: GI50 [1]: 5880 nM; TC-32 Ewing sarcoma EWS-FLI1 Type 1 GI50 [2]: 1030 nM; GI50 ratio PC-3:TC-32 [2]: 5.7

Q: How did the GI50 [1] turn out when COC(=O)C(Cc1c[nH]c2cc(C(F)(F)F)ccc12)NC(=O)C(OC)C1Cc2cc3cc(OC4CC(OC5CC(O)C(O)C(C)O5)C(O)C(C)O4)c(C)c(O)c3c(O)c2C(=O)C1OC1CC(OC2CC(OC3CC(C)(O)C(O)C(C)O3)C(O)C(C)O2)C(O)C(C)O1 (stereo not shown) [Analogue 55] was run?
A: 2400 nM

Q: What about the “TC-32 Ewing sarcoma EWS-FLI1 Type 1 GI50” value [2] of the same compound?
A: 2339 nM

Q: What about the “GI50 ratio PC-3:TC-32” value [2] of the same compound?
A: 1.0

Q: What does the source list for COC(=O)C(Cc1c[nH]c2cc3ccccc3cc12)NC(=O)C(OC)C1Cc2cc3cc(OC4CC(OC5CC(O)C(O)C(C)O5)C(O)C(C)O4)c(C)c(O)c3c(O)c2C(=O)C1OC1CC(OC2CC(OC3CC(C)(O)C(O)C(C)O3)C(O)C(C)O2)C(O)C(C)O1 (stereo not shown) [Analogue 57]?
A: GI50 [1]: > 10000 nM; TC-32 Ewing sarcoma EWS-FLI1 Type 1 GI50 [2]: 3505 nM; fold decrease in activity in the TC-32 cell line ([2]; compared with the tryptophan parent): ~34 fold

Q: Which GI50 [1] does the source give for COC(=O)C(Cc1ccc2ccccc2c1)NC(=O)C(OC)C1Cc2cc3cc(OC4CC(OC5CC(O)C(O)C(C)O5)C(O)C(C)O4)c(C)c(O)c3c(O)c2C(=O)C1OC1CC(OC2CC(OC3CC(C)(O)C(O)C(C)O3)C(O)C(C)O2)C(O)C(C)O1 (stereo not shown) [Analogue 58] here?
A: 1600 nM

Q: And the “TC-32 Ewing sarcoma EWS-FLI1 Type 1 GI50” value [2]?
A: 541 nM

Q: What about the “GI50 ratio PC-3:TC-32” value [2] of the same compound?
A: 3.0
